In ChEMBL document CHEMBL1134073 (Bioorg Med Chem Lett, 2001):

Key:
[1] = system: MT4; test: Antiviral activity against HIV in presence of 50% human serum in MT-4 cell was determined; type: functional, cell-based
[2] = molecular target: Human immunodeficiency virus type 1 protease (Human immunodeficiency virus 1, UniProt Q72874); test: Inhibitory activity against HIV protease

Ki [2] [nM] | SMILES | EC50 [1] [nM]
0.0007 | Cc1cccc(C)c1OCC(=O)N[C@@H](Cc1ccccc1)[C@@H](O)C[C@H](Cc1ccccc1)NC(=O)[C@H](C(C)C)N1CCC(=O)NC1=O | 1410
– | Cc1cccc(C)c1OCC(=O)N[C@@H](Cc1ccccc1)[C@@H](O)C[C@H](Cc1ccccc1)NC(=O)[C@H](C(C)C)N1CCCNC1=O [LOPINAVIR] | 104
0.0012 | Cc1cccc(C)c1OCC(=O)N[C@@H](Cc1ccccc1)[C@@H](O)C[C@H](Cc1ccccc1)NC(=O)[C@H](C(C)C)N1CCC(O)NC1=O (stereo not given in full) | 2310
